For one assay, the target named is T1, FPR2 (Homo sapiens, UniProt P25090).
T1 construct: expressed in transfected cells
T1 sequence (P25090 1-351): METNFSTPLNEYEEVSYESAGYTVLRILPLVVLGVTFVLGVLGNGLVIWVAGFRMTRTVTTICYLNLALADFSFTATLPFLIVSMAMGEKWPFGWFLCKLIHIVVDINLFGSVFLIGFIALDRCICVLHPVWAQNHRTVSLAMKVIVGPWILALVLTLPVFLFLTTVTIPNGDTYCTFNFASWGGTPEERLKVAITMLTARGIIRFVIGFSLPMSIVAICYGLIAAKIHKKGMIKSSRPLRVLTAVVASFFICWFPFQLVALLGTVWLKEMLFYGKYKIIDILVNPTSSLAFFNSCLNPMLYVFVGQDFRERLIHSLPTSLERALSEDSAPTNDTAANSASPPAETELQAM
In words: Compound-induced calcium activity (FLIPR Tetra) in CHO-Gα16 cells stably expressing FPR2. The class given is cell-based. To be noted: for EC50: calcium activity, tested 0.61 to 10,000 nM, read-out: FPR2 Ga16-CHO EC50; for Emax: efficacy value in brackets, read-out: FPR2 Ga16-CHO (% eff). The protocol:
(§1) CHO-Gα16 cells stably expressing FPR1 or FPR2 were cultured in: Ham's F12 nutrient media, 10% fetal bovine serum, 1% PSA (penicillin, streptomycin, amphotericin B antiobiotic/antimycotic), 400 μg/ml geneticin and 50 μg/ml hygromycin. In general, the day before the experiment, 18,000 cells/well were plated in a 384-well clear bottom poly-D-lysine coated plate. The following day the screening compound-induced calcium activity was assayed on the FLIPR^Tetra. The drug plates were prepared in 384-well microplates using the EP3 and the MultiPROBE robotic liquid handling systems. Compounds were tested at concentrations ranging from 0.61 to 10,000 nM. Results are expressed as EC50 (nM) and efficacy values.

The next assay addresses T2, FPR1 (Homo sapiens, UniProt P21462).
T2 construct: expressed in transfected cells
T2 sequence (P21462 1-350): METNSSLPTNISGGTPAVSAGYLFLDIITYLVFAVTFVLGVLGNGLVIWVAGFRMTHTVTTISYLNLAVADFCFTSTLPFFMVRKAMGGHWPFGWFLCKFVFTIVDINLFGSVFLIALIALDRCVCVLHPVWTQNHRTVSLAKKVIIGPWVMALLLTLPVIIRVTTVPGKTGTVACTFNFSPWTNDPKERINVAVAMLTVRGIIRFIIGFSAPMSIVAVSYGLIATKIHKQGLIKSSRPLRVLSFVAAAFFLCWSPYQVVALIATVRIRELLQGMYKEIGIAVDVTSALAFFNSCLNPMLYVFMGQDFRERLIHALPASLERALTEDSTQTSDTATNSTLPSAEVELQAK
In words: Compound-induced calcium activity (FLIPR Tetra) in CHO-Gα16 cells stably expressing FPR1. The settings on record: for EC50 / Emax: CHO-Gα16 cells stably expressing FPR1; for EC50: calcium activity, tested 0.61 to 10,000 nM, read-out: FPR1 Ga16-CHO EC50; for Ratio FPR2:FPR1 (EC50): ratio of the EC50 for agonizing FPR2 to the EC50 for agonizing FPR1; for Emax: efficacy value in brackets, read-out: FPR1 Ga16-CHO (% eff). The format is cell-based. As for the experimental part:
as §1

A word on the EC50: it is the concentration giving half of the maximal effect. `O=C(Nc1ccc(Br)cc1)NC1CCCCCCC1C(=O)O` (stereo not drawn) [Compound 20, 2-(3-(4-Bromophenyl)ureido)cyclooctanecarboxylic acid]: on FPR2, the EC50 was determined as 82 nM and the Emax amounted to 97%. In addition, on FPR1, the EC50 is 51 nM and the “Ratio FPR2:FPR1 (EC50)” value was determined as 1.6.
In the case of `CC(C)CC(CCNC(=O)Nc1ccc(Br)cc1)S(=O)(=O)O` (stereo not drawn) [Compound 21, 1-(3-(4-Bromophenyl)ureido)-5-methylhexane-3-sulfonic acid], on FPR2, the EC50 is 1260 nM and the Emax was 89%. In addition, on FPR1, the EC50 amounted to 7 nM, the Emax was found to be 99% and the “Ratio FPR2:FPR1 (EC50)” value stood at 179.
As for `CC(C)CC(CNC(=O)Nc1ccc(Br)cc1)C(=O)NCC(=O)OC(C)(C)C` (stereo not drawn) [Compound 31, t-Butyl ({2-[({[(4 bromophenyl)amino]carbonyl}amino)methyl]-4-methylpentanoyl}amino)acetate], at FPR2, the EC50 came to 1500 nM and the Emax is 18%. In addition, at FPR1, the EC50 worked out at 552 nM, the Emax turned out to be 98% and the “Ratio FPR2:FPR1 (EC50)” value was found to be 2.7.
On the same counts, the results for `CC(C)CC(CNC(=O)Nc1ccc(Br)cc1)C(=O)N(C)CC(=O)OC(C)(C)C` (stereo not drawn) [Compound 32, tert-Butyl 2-(2-((3-(4-bromophenyl)ureido)methyl)-N,4-dimethylpentanamido)acetate] are 1030 nM, 89%, 2510 nM, 73% and 0.41.
Taken in the same sequence, the figures for `CC(C)CC(CNC(=O)Nc1ccc(Br)cc1)C(=O)NCc1nnn[nH]1` (stereo not drawn) [Compound 33, N-((1H-tetrazol-5-yl)methyl)-2-((3-(4-bromophenyl)ureido)methyl)-4-methylpentanamide] were 130 nM, 98%, 13 nM, 95% and 10.
Taken in the same sequence, the figures for `CC(C)CC(CNC(=O)Nc1ccc(Br)cc1)C(=O)N(C)C` (stereo not drawn) [Compound 34, 2-((3-(4-bromophenyl)ureido)methyl)-N,N,4-trimethylpentanamide] were 314 nM, 92%, 6320 nM, 69% and <1.
With `CC(C)CC(CNC(=O)Nc1ccc(Br)cc1)C(N)=O` (stereo not drawn) [Compound 35, 2-((3-(4-bromophenyl)ureido)methyl)-4-methylpentanamide], at FPR2, the concentration giving a half-maximal response (EC50) turned out to be 975 nM and the Emax worked out at 95%. In addition, on FPR1, the EC50 amounted to 7090 nM, the Emax came to 80% and the “Ratio FPR2:FPR1 (EC50)” value was 0.14.
Taken in the same sequence, the figures for `CC(C)CC(CNC(=O)Nc1ccc(Br)cc1)C(=O)NCC(=O)O` (stereo not drawn) [Compound 36, ({2-[({[(4-bromophenyl)amino]carbonyl}amino)methyl]-4-methylpentanoyl}amino)acetic acid] were 1000 nM, 43%, 156 nM, 95% and 6.4.
Taken in the same sequence, the figures for `CC(C)CC(CNC(=O)Nc1ccc(Br)cc1)C(=O)N(C)CC(=O)O` (stereo not drawn) [Compound 37, 2-(2-((3-(4-bromophenyl)ureido)methyl)-N,4-dimethylpentanamido)acetic acid] were 12 nM, 104%, 55 nM, 96% and 0.22.
As to `COC(=O)C(CNC(=O)CNC(=O)Nc1ccc(Br)cc1)CC(C)C` (stereo not drawn) [Compound 38], on FPR2, the half-maximal effective concentration (EC50) is 2170 nM and the Emax amounted to 80%. Besides, on FPR1, the EC50 turned out to be 2600 nM, the Emax was 77% and the “Ratio FPR2:FPR1 (EC50)” value turned out to be 0.83.
As for `CC(C)CC(CNC(=O)CNC(=O)Nc1ccc(Br)cc1)C(=O)O` (stereo not drawn) [Compound 39, 2-((2-(3-(4-Bromophenyl)ureido)acetamido)methyl)-4-methylpentanoic acid], on FPR2, the EC50 stood at 1680 nM and the Emax was found to be 77%. Moreover, on FPR1, the EC50 is 19 nM, the Emax was determined as 96% and the “Ratio FPR2:FPR1 (EC50)” value came out at 88.

These data come from patent publication US11286234B2, “Phenyl urea derivatives as N-formyl peptide receptor modulators” (Allergan, Inc., priority 2016, dated 2022).
